From US7425579B2, “Methods for inhibiting activity of polyamine transporters” (Universite Laval, priority 1998, dated 2008)
Where two headings read alike, the source gives them in different places.

Key:
[1] = tested on: CHO-K1 cells; assay: Reversal of DFMO-induced cytostasis by exogenous spermidine in CHO-K1 cells; assay type: cell-based, Chinese hamster; conditions: DFMO-treated CHO-K1 cells with extracellular spermidine; data not shown
Method: (§1) FIGS. 8A and 8B are graphs representing the time course of the effect of a compound used in a method according to a preferred embodiment of the invention on rescue of DFMO-induced cytostasis by exogenous spermidine. In particular, at time zero, T-47D (panel A) or CHO-K1 (panel B) were seeded at 1×10^4 or 5×10^3 cells/well, respectively, in medium containing 1 mM aminoguanidine, plus either 0.3 μM spermidine (Spd, ●), 2 mM DFMO (□), Spd+DFMO (▪), 50 μM (A) or 100 μM (B) BNSD-X (Δ), BNSD-X+Spd (▴), BNSD-X+DFMO (□), BNSD-X+Spd+DFMO (▾), or vehicle only (∘). At the indicated time, total DNA content/well was determined. Data are presented as the mean±SD for triplicate cultures from one representative experiment;
(§2) To determine the ability of polyamine transport antagonists to potentiate DFMO-induced inhibition of cell proliferation in the presence of exogenous polyamines, cells were grown for the indicated period in growth medium supplemented with 1 mM aminoguanidine, and either DFMO (1 to 5 mM), the indicated transport inhibitor (50 or 100 μM), or the combination thereof, as well as increasing concentrations of spermidine (0.1 to 300 μM). Fresh medium was added every other day, and cell mass was determined at various time points during the period of exponential growth, or at the end of the experimental period. For the latter experiments, the FBS supplement was replaced with dextran-coated charcoal-treated FBS (5%, v/v) plus 0.5 μg/ml insulin in the case of T-47D, ZR-75-1 and MCF-7 cells (U.S. Pat. No. 6,083,496).

[2] = tested on: T-47D cells; assay: Reversal of DFMO-induced cytostasis by exogenous spermidine in T-47D cells; assay type: cell-based, human; conditions: T-47D cells with extracellular spermidine and DFMO
Method: FIGS. 6A, 6B, 6C and 6D are graph showing that antagonism of DFMO-induced cytostasis by exogenous spermidine depends on the polyamine and linker structure of the compounds used in a method according to a preferred embodiment of the invention. In particular, T-47D cells were grown for 8-9 d with the indicated concentrations of spermidine in medium containing 1 mM aminoguanidine, in the presence of DFMO (●), transport inhibitor (□), DFMO plus transport inhibitor (▪), or in the absence of either agent (∘), and total DNA content per culture was then determined. Panels A, B, C, and D describe the effect of BNSD-X, BSD-X, BNSD-3 and BSD-3, respectively. Data are presented as the mean±SD for triplicate cultures from one out of at least two identical experiments;
as §1, §2

[3] = tested on: mammalian polyamine carrier; assay: Determination of polyamine uptake activity: inhibition of diamine and polyamine transport in T-47D cells; assay type: cell-based, human; conditions: for Ki: mean±SD
Method: The rate of diamine and polyamine transport was determined in T-47D and ZR-75-1 cells incubated in serum-free RPMI 1640 medium as previously described (U.S. Pat. No. 6,083,496; Covassin et al. (1999) Bioorg. Med. Chem. Lett. 9, 1709-1714), using 20 μM [^3H]putrescine (179 Ci/mol), 5 μM [^3H]spermidine (246 Ci/mol) and 3 μM [^14C]spermine (300-400 mCi/mol) respectively, as substrates for a 20-min assay period. Uptake activity was expressed per amount of DNA as fluorometrically determined using 3,5-diaminobenzoic acid (Simard et al. (1990) Endocrinology 126, 3223-3231). Kinetic parameters of polyamine transport inhibition for the transport antagonists were determined by Lineweaver-Burke analysis of uptake activity in the presence of 0.1 μM [^3H]putrescine, 0.03 μM [^3H]spermidine, and 0.01 μM [^14C]spermine plus increasing concentrations of nonradioactive substrate. For competitive inhibitors, Ki values were estimated by iterative curve fitting for sigmoidal equations describing transport rates in the presence of increasing concentrations of antagonist, using the Cheng-Prusoff equation for competitive inhibition (U.S. Pat. No. 6,083,496).
The ability of BSD and BNSD compounds to inhibit uptake of the main natural substrates of the mammalian polyamine carrier, namely putrescine, spermidine and spermine, was evaluated using T-47D human breast cancer cells (Table 1).
Data are presented as the mean±SD of at least two independent determinations of IC50 values, each based on triplicate determinations of uptake velocity at increasing inhibitor concentrations.
The potency of the polyamines and their xylylated dimers as competitive inhibitors of spermidine transport was evaluated in the T-47D human breast cancer cell line (Table 2).

[4] = tested on: T-47D cells; assay: Effect of inhibitors on T-47D cell proliferation (DNA content); assay type: cell-based, human
Method: FIGS. 3A and 3B are graphs showing the effect compounds used in a method according preferred embodiment of the present invention, on cell proliferation. In particular, they relate to the effect of selected BSD and BNSD derivatives on T-47D cell proliferation. Cells were incubated for 9 d with the indicated concentrations of BSD-2 (∘), BNSD-4 (●), BSD-4 (□), BNSD-6 (▪), BSD-10 (Δ), BSD-4-ene (▴) and BSD-4-yne (▾) in medium containing 1 mM aminoguanidine, and total DNA content per culture was then determined. B, Effect of BNSD-X (N,N,N′,N′-tetrakis-(3-aminopropyl)-p-diaminoxylene) on cell proliferation in various mammalian cell lines. Jurkat (∘), LAN-1 (●), L1210 (□), T-47D (▪), ZR-75-1 (Δ) and MDA-MB-231 (▴) cells were grown to near confluency or saturation (for 4 to 11 d according to the cell line considered) with the indicated concentrations of BNSD-X in the presence of 1 mM aminoguanidine, and total DNA content per culture was then determined. Data are given as the mean±SD for triplicate cultures from one out of at least two identical experiments;
FIGS. 4A and 4B are graphs showing how compounds used in a method according to a preferred embodiment are differentially sensitive to degradation by BSAO (bovine serum amine oxidase). In particular, T-47D cells were incubated for 9 d with the indicated concentrations of BSD-X (∘), BNSD-X (●), BSD-3 (□) or BNSD-3 (▪) in the absence (A) or presence of 1 mM aminoguanidine (B), and total DNA content per culture was then determined. Data are presented as the mean±SD for triplicate cultures from one representative experiment;
The effect of transport inhibitors on cell proliferation was evaluated by determination of cell number (L1210, Jurkat) using electronic sizing with a Model ZM Coulter counter (Coulter Electronics, Hialeah, Fla.), or DNA content per culture (for all other cell lines) with the 3,5-diaminobenzoic acid assay. […] Cytotoxicity of the inhibitors was determined in the presence or absence of aminoguanidine, and was confirmed by a trypan blue exclusion assay.

[5] = tested on: CHO-K1, Jurkat, L1210, MDA-MB-231, ZR-75-1 and MCF-7 cells; assay: Reversal of DFMO-induced cytostasis by exogenous spermidine in a variety of mammalian cell lines; assay type: cell-based; conditions: most cell lines; concentrations as low as
Method: FIGS. 5A, 5B, 5C, 5D, 5E and 5F are graphs representing that a compound used in a method according to a preferred embodiment antagonizes rescue of DFMO-induced cytostasis by exogenous spermidine. In particular, CHO-K1 (A), Jurkat (B), L1210 (C), MDA-MB-231 (D), ZR-75-1 (E) and MCF-7 cells (F) were grown to near confluency or saturation (for 4 to 11 d according to the cell line considered) with the indicated concentrations of spermidine in medium containing 1 mM aminoguanidine, in the presence of DFMO (●), BNSD-X (□), DFMO plus BNSD-X (▪), or in the absence of either agent (∘), and total DNA content per culture was then determined. The optimal concentration of either DFMO (1 to 5 mM) or BNSD-X (50 or 100 μM) was used for the each cell line as determined in pilot experiments. Data are presented as the mean±SD for triplicate cultures from one out of at least three identical experiments for each cell line;
as §2

[6] = T-47D breast cancer cells, read-out: Ki, inhibition of [3H]putrescine uptake
[7] = T-47D breast cancer cells, read-out: Ki, inhibition of [3H]spermidine uptake
[8] = T-47D breast cancer cells, read-out: Ki, inhibition of [14C]spermine uptake

NCCCCN(CCCN)Cc1ccc(CN(CCCN)CCCCN)cc1 [28b] was tested, and the “effect on spermidine-mediated reversal of DFMO-induced growth inhibition, CHO-K1” value [1] was “afforded increased resistance to exogenous spermidine”, the “effect on spermidine-mediated reversal of DFMO-induced growth inhibition, T-47D” value [2] was “did not increase the range of spermidine concentrations able to reverse inhibition of cell proliferation by DFMO” and the Ki [3, 6] was 280 ± 20 nM. It also gave a Ki [3, 7] of 2000 ± 200 nM and a Ki [3, 8] of 2900 ± 600 nM.
NCCCN(CCCN)CCCN(CCCN)CCCN [19a] was tested, and the “effect on spermidine-mediated reversal of DFMO-induced growth inhibition, CHO-K1” value [1] was “exhibited no activity”, the “effect on spermidine-mediated reversal of DFMO-induced growth inhibition, T-47D” value [2] was “exhibited no activity” and the “cytotoxicity in the absence of aminoguanidine” value [4] was “considerably more cytotoxic than their spermidine-like homologs”. It also gave a Ki [3, 6] of 1600 ± 400 nM, a Ki [3, 7] of 8300 ± 800 nM and a Ki [3, 8] of 6200 ± 1700 nM. The “times less potent than BSD-3 as a spermidine transport antagonist” value ([3]; T-47D cells) was “about 5 times”.
With NCCCCNCCCN [Spermidine, reference compound] the “spermidine concentration that completely counteracts DFMO-induced cytostasis” value [5] was 0.3 to 1 µM, the Km ([3]; T-47D breast cancer cells, substrate itself, read-out: Km for [3H]spermidine uptake) was 4.4 ± 0.9 µM and the Km ([3]; T-47D cells, Lineweaver-Burke analysis, 0.01-300 μM substrate, read-out: Km for spermidine uptake (Table 2)) was 4.4 ± 0.9 µM.
